Laboratory results published in patent US6630501B1, “Phosphinic pseudo-peptides that may be used as matrix zinc metalloprotease inhibitors” (Commissariat a l'energie Atomique, priority 1999, dated 2003).

Legend:
[1] = biological target: T1, MMP-11 (stromelysin-3, mST3) (Mus musculus, UniProt Q02853); test: Ki determination with fluorogenic synthetic substrates, recombinant MMP-11; type: biochemical, murine; conditions: Tris/50 mM HCl buffer, pH 6.8, 10 mM CaCl2, 25° C.; read-out: affinity constant Ki, MMP-11 mST3
T1 construct: made in house; host or cells: E. coli
T1 sequence (Q02853 102-492): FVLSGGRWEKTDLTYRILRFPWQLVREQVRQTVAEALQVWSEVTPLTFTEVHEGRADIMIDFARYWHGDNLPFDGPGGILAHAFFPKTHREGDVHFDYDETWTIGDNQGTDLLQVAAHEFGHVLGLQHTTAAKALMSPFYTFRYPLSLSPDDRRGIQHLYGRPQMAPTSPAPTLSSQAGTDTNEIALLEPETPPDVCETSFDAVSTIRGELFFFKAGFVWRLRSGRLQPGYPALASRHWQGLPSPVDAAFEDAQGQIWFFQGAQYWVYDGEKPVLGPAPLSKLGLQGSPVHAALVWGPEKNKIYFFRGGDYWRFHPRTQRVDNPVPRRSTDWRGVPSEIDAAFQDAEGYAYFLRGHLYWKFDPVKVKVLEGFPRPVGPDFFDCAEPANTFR
Procedure: (§1) The MMPs used were produced in recombinant form, in an E. coli expression system, and then purified using different types of chromatographies. Apart from stromelysin-3 (MMP-11), the MMPs produces correspond to human sequences. The Stromelysin-3 used in this study corresponds to the murine form.
(§2) The activity of each MMP was determined using two fluorogenic synthetic substrates. The cutoff of said substrates, which generates a fluorescent signal proportional to the quantity of split substrate, enables a precise determination of the kinetic parameters. The affinity constants Ki were calculated using the equation of Horowitz et al, Proc. Natl. Acad. Sci. USA, 1987, 84, p. 6654-6658 [14], accounting for the dependency of the percentage of inhibition measured experimentally according to the concentration of inhibitor, as a function of the enzyme and substrate concentration.
(§3) The experiments for conducted in a Tris/50 mM HCl buffer, pH 6.8, 10 mM CaCl2, 25° C.

MMP-2 (Gel-A) = biological target: T2, MMP-2 (Gel-A) (Homo sapiens, UniProt P08253); test: Ki determination with fluorogenic synthetic substrates, recombinant MMP-2; type: biochemical; conditions: Tris/50 mM HCl buffer, pH 6.8, 10 mM CaCl2, 25° C.; read-out: affinity constant Ki, MMP-2 Gel-A
T2 construct: made in house; host or cells: E. coli
T2 sequence (P08253 110-660): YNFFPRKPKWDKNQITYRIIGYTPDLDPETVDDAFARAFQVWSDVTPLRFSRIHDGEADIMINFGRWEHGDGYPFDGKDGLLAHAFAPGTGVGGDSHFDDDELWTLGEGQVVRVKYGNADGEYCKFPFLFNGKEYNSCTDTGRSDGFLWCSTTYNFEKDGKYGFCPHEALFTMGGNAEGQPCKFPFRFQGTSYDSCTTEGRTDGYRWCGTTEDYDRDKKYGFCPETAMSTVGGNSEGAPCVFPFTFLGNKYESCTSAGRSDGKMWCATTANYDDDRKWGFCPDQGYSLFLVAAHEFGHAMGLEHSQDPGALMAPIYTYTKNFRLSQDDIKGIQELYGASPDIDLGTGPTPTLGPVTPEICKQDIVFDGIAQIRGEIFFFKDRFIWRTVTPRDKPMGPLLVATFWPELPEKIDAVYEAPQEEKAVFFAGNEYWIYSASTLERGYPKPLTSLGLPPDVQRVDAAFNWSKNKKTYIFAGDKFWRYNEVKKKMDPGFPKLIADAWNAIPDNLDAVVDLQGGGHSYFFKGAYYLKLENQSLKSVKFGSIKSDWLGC
Procedure: as §1, §2, §3

MMP-9 (Gel-B) = biological target: T3, MMP-9 (Gel-B) (Homo sapiens, UniProt P14780); test: Ki determination with fluorogenic synthetic substrates, recombinant MMP-9; type: biochemical; conditions: Tris/50 mM HCl buffer, pH 6.8, 10 mM CaCl2, 25° C.; read-out: affinity constant Ki, MMP-9 Gel-B
T3 construct: made in house; host or cells: E. coli
T3 sequence (P14780 94-707): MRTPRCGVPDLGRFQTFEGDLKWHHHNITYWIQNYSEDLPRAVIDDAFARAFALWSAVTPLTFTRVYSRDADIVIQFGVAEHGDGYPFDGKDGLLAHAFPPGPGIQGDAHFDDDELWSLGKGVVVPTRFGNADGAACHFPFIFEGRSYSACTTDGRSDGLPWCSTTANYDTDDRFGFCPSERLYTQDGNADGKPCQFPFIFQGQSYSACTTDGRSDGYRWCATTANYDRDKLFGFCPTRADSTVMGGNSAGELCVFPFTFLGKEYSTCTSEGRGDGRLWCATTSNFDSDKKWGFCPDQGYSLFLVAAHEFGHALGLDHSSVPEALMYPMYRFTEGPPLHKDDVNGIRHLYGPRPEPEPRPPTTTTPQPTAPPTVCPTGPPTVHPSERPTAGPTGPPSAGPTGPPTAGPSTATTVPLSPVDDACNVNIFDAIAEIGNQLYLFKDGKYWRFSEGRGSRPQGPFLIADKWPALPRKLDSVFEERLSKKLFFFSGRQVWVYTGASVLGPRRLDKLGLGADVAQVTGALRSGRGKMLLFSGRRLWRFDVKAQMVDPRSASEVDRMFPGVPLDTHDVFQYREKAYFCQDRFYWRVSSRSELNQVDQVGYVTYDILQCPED
Procedure: as §1, §2, §3

MMP-14 (MT1-MMP) = biological target: T4, MMP-14 (MT1-MMP) (Homo sapiens, UniProt P50281); test: Ki determination with fluorogenic synthetic substrates, recombinant MMP-14; type: biochemical; conditions: Tris/50 mM HCl buffer, pH 6.8, 10 mM CaCl2, 25° C.; read-out: affinity constant Ki, MMP-14 MT1-MMP
T4 construct: made in house; host or cells: E. coli
Procedure: as §1, §2, §3

MMP-1 (HFC) = biological target: T5, MMP-1 (HFC) (Homo sapiens, UniProt P03956); test: Ki determination with fluorogenic synthetic substrates, recombinant MMP-1; type: biochemical; conditions: @ 2 mM inhibitor; listed as R I
T5 construct: made in house; host or cells: E. coli
T5 sequence (P03956 100-469): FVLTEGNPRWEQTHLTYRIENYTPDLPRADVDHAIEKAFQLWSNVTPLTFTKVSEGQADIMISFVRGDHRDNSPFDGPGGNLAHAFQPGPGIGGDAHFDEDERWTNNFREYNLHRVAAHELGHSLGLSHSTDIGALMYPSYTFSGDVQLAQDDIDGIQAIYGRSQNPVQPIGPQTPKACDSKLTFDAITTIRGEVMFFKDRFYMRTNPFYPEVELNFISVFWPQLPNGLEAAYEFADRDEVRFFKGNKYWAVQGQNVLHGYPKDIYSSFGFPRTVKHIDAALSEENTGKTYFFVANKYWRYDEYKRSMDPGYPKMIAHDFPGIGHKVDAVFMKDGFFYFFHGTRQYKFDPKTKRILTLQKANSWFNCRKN
Procedure: as §1, §2, §3

MMP-7 (Matrilysin) = biological target: T6, MMP-7 (Matrilysin) (Homo sapiens, UniProt P09237); test: Ki determination with fluorogenic synthetic substrates, recombinant MMP-7; type: biochemical; conditions: @ 20 mM inhibitor; listed as R I
T6 construct: made in house; host or cells: E. coli
T6 sequence (P09237 95-267): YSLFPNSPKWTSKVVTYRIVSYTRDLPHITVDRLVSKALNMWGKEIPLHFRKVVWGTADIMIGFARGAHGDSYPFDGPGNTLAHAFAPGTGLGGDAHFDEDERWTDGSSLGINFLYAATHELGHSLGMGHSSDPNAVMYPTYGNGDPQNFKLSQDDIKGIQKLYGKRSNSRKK
Procedure: as §1, §2, §3

MMP-8 (HNC) = biological target: T7, MMP-8 (HNC) (Homo sapiens, UniProt P22894); test: Ki determination with fluorogenic synthetic substrates, recombinant MMP-8; type: biochemical; conditions: Tris/50 mM HCl buffer, pH 6.8, 10 mM CaCl2, 25° C.; read-out: affinity constant Ki, MMP-8 HNC
T7 construct: made in house; host or cells: E. coli
T7 sequence (P22894 101-467): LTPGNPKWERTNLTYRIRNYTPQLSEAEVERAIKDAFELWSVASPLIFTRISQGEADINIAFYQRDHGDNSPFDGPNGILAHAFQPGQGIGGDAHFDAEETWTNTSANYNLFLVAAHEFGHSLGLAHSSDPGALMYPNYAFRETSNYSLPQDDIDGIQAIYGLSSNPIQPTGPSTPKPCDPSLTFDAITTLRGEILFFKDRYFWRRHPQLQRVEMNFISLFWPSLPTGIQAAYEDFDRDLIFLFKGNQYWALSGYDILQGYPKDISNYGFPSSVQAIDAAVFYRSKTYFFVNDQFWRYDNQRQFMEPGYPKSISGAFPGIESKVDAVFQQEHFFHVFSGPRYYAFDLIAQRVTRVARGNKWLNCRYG
Procedure: as §1, §2, §3

[2] = test system: malignant murine C26 cells; test: Tumorigenesis model: subcutaneous graft of malignant murine C26 cells in syngenic mice; type: in vivo; conditions: 150 μg of inhibitor/mouse/day, intraperitoneal
Procedure: The tumorigenesis model used to test the effect of said RXPO3 inhibitor in vivo consists of a subcutaneous graft of malignant murine C26 cells in syngenic mice (with a genetic background similar to that of the injected cells).
The C26 cells established from Balb c mouse colic cancer (Corbett et al., 1975, Cancer Res, 35:2434-2439 [15] are cultured until subconfluence. After trypsinisation, the cells are centrifuged at 1000 g for 10 minutes. The sediment is washed and resuspended in 1×PBS. A […] volume, containing 5×10^4 C26 cells, is injected subcutaneously at 2 sites on the back of 8 to 9-week old mice. The inhibitor is solubilised in 1× PBS and […] of inhibitor in a […] volume is administered by the intraperitoneal route. The treatment starts on the day of the injection of the C26 cells and continues at a rate of one injection a day for 25 days. The tumoral volumes are measured every day.
Three identical and independent tumorigenesis experiments were conducted, according to the protocol given above. The results obtained were similar. One of them is reported below.
The experiment related to 12 animals, 6 receiving a treatment (150 μg of inhibitor/mouse/day) and 6 used as controlled animals (150 μl 1×PBS).

SMILES: NC(=O)C(Cc1c[nH]c2ccccc12)NC(=O)C(CCCc1ccccc1)CP(=O)(O)C(Cc1ccccc1)NC(=O)OCc1ccccc1 (single isomer, unassigned) [Compound 15 R I, ZPheΨ(PO2CpH2)pPheTrpNH2]
- Ki [1]: 0.006 µM
- Ki (MMP-2 (Gel-A)): 0.054 µM
- Ki (MMP-9 (Gel-B)): 0.042 µM
- Ki (MMP-14 (MT1-MMP)): 0.09 µM
- percentage of inhibition, MMP-1 (MMP-1 (HFC)): 18% @ 2 mM
- percentage of inhibition, MMP-7 (MMP-7 (Matrilysin)): 44% @ 20 mM
- Ki (MMP-8 (HNC)): 0.016 µM
- mean and median tumour volumes in treated versus control animals ([2]; Days 10 to 25): always lower
- difference in tumour size, treated versus control animals ([2]; day D15 to day D20, one injection a day for 25 days): ~50%
